The values that follow are results of earlier work, collected in paper PMC3742671, “Structure, Antimicrobial Activities and Mode of Interaction with Membranes of Bovel Phylloseptins from the Painted-Belly Leaf Frog, Phyllomedusa sauvagii” (PLoS ONE, 2013).

In this data set the test system is Escherichia coli. The settings on record: cited from earlier work. The text has this:
The 16–19 amino acid residue phylloseptins (PLSs) are a new emerging family of cationic antimicrobial peptides that belong to the dermaseptin superfamily, and whose members have been isolated from various genera of the Phyllomedusinae subfamily (Agalychnis, Phasmahyla, and Phyllomedusa), [10]–[16]. Like the archetypal dermaseptins (sensu stricto), these peptides seem to occur in multiple paralogous forms in each species with small differences in amino acid composition. Although only a few of these peptides were properly tested against various microorganisms, significant differences i ...

Ends that are not written are not given here.

With FLSLIPHIVSGVASIAKHF-NH2 [PLS-S1], the minimum inhibitory concentration (MIC) is listed as 80 µM.

The term MIC denotes the smallest concentration in the dilution series that meets the test's criterion for growth inhibition.
